From patent US20140271734A1, “BILE ACID RECYCLING INHIBITORS FOR TREATMENT OF BARRETT'S ESOPHAGUS AND GASTROESOPHAGEAL REFLUX DISEASE” (LUMENA PHARMACEUTICALS, INC., priority 2013, published 2014)
Like-named read-outs stand apart in the source and are kept apart here.

Tests used:
[1] = Pharmacokinetics of LUM001 after oral gavage in rats; format: in vivo; conditions: both sexes, Sprague Dawley, rat, plasma; for bioavailability: read-out: BA (bioavailability); for AUC(0-t): read-out: AUC(0-8 h)
Procedure: Groups of fasted Sprague Dawley rats (n=6/sex/group) were administered LUM001 as a single oral solution dose of either 1, 5 or 30 mg LUM001 free form/kg. The dose of 5 mg LUM001 free form/kg was also administered to rats in a fed state to evaluate the effect of food on plasma concentrations of LUM001 free form. Since LUM001 is a chloride salt, 105% of the amount of LUM001 is required to deliver the stated dose of the free form. The oral dose was delivered to the rat in Tween 80Milli-Q water (0.2% Tween, v/v) and was prepared on the day of dosing.
Blood samples of approximately 1 mL (n=2/sex/timepoint/treatment group) were collected by retro-orbital bleed into chilled tubes containing heparin at timepoints 0 (predose), 0.25, 0.5, 1, 1.5, 2, 3, 5 and 8 hours. The plasma samples were prepared by centrifugation of blood within 30 minutes after sample collection. All samples were stored at −20° C.±5° C. until analysis to study the relative exposures of LUM001 free form after oral solution dosing. The concentration of LUM001 free form in plasma were determined using an LCMSMS method. The assay sensitivity was 2.38 ng/mL.
Means and standard errors of the means (SEM) were calculated for plasma concentrations at each time point. Mean values are significant to three figures and SEM values are significant to the same decimal place as the corresponding mean. Concentration values less than the assay sensitivity (2.38 ng LUM001 free form/mL) were reported as zero. The area under the plasma concentration-time curve (AUC) was calculated from time 0 to 8 hours using a non-compartmental model in WinNonlin (1). The bioavailability (% BA) of LUM001 after oral administration of LUM001 was calculated according to the equation below:
% BA=[AUC oral (0-8)/AUC IV(0-8)/Dose oral/Dose IV]×100.

[2] = system: serum bile acids; test: Serum bile acids, ascending multiple oral doses of LUM001 in healthy adults; format: in vivo, human; conditions: 28 days
Procedure: This Phase 1 study was a randomized, double-blind, placebo-controlled study of ascending multiple oral doses of LUM001 in healthy, adult subjects. This study was conducted at a single center. There were 13 LUM001 dosing panels: 10, 20, 60, 100, and 20 mg every morning (qAM) (2) (i.e., the regimen was tested a second time in the study), 5 mg every evening (qPM), 0.5, 1, 2.5, 5, 2.5 (2), 5 (2), and 0.5 to 5 mg qAM dose titration. Most of the dosing panels included subjects treated with matching placebo. No subject participated in more than 1 dosing panel. Subjects were randomized into the study by dosing panel, and all subjects within a dosing panel received study medication at approximately the same time each day. Safety was reviewed for each panel before subsequent panels were initiated. A total of 167 subjects were treated for 28 days, 147 with LUM001 and 20 with placebo. […]
On Day 1 of the Treatment Period, subjects who qualified for enrollment were randomized in the order in which they were admitted to the research facility. […] The safety and tolerability of LUM001 were evaluated by physical examination, ascertainment of adverse signs and symptoms, and clinical laboratory studies. […]
SBA were analyzed as part of the routine clinical analysis of the serum samples collected at each time point.

[3] = system: Aspartate Aminotransferase (ASAT); test: Plasma aspartate aminotransferase in ZDF rats, week 3; format: in vivo; conditions: twice daily oral gavage
[4] = system: Alanine Aminotransferase (ALAT); test: Plasma alanine aminotransferase in ZDF rats, week 3; format: in vivo; conditions: twice daily oral gavage
[5] = system: plasma amylase; test: Plasma amylase in ZDF rats, week 3; format: in vivo; conditions: twice daily oral gavage
[6] = 5 mg/kg, single oral gavage 5 mg/kg free form, fasted
[7] = 5 mg/kg, single oral gavage 5 mg/kg free form, fed
[8] = 30 mg/kg, single oral gavage 30 mg/kg free form, fasted

Row | Compound | bioavailability ([1]; 1 mg/kg, single oral gavage 1 mg/kg free form, fasted) [%] | Cmax [1, 6] [ng/mL] | Tmax [1, 6] [min] | AUC(0-t) [1, 6] [ng·h/mL] | bioavailability [1, 6] [%] | Cmax [1, 7] [ng/mL] | Tmax [1, 7] [min] | AUC(0-t) [1, 7] [ng·h/mL] | bioavailability [1, 7] [%] | Cmax [1, 8] [ng/mL] | Tmax [1, 8] [min] | AUC(0-t) [1, 8] [ng·h/mL] | bioavailability [1, 8] [%] | Serum bile acids [2] | Plasma aspartate aminotransferase (ASAT) [3] | Plasma alanine aminotransferase (ALAT) [4] | Plasma amylase [5]
1 | CCCCC1(CCCC)CS(=O)(=O)c2ccc(N(C)C)cc2[C@@H](c2ccc(OCc3ccc(C[N+]45CCN(CC4)CC5)cc3)cc2)[C@H]1O [LUM001] | < 0.1 | 2.45 | 60 | 6.58 | 0.1 | 3.58 | 15 | 12.6 | 0.2 | 5.43 | 30 | 4.16 | < 0.1 | significant reduction in serum bile acids | – | – | –
2 | CCCC[C@]1(CC)CS(=O)(=O)c2ccc(N(C)C)cc2[C@@H](c2cccc(NC(=O)N[C@@H]3O[C@H](COS(=O)(=O)[O-])[C@@H](O)[C@H](OCc4ccccc4)[C@H]3O)c2)[C@H]1O.CCO.O.[K+] [LUM002, potassium((2R,3R,4S,5R,6R)-4-benzyloxy-6-{3-[3-((3S,4R,5R)-3-butyl-7-dimethylamino-3-ethyl-4-hydroxy-1,1-dioxo-2,3,4,5-tetrahydro-1H-benzo[b]thiepin-5-yl)-phenyl]-ureido}-3,5-dihydroxy-tetrahydro-pyran-2-ylmethyl)sulphate ethanolate, hydrate] | – | – | – | – | – | – | – | – | – | – | – | – | – | – | statistically significant reduction in ASAT | Neither LUM002 nor SC-435 caused statistically significant reductions | Neither LUM002 nor SC-435 caused a statistically significant changes
